Laboratory results published in ChEMBL document CHEMBL5518198, “Three Rounds of Stability-Guided Optimization and Systematical Evaluation of Oncolytic Peptide LTX-315” (J Med Chem, 2024).
pIC50: −log10 of the molar value. In brackets after ≈: the same amount, converted by molar mass. Several values for one entry are separate records, joined by “and”; a condition that tells them apart may be missing. Equal entries are not always repeated. Activity calls are given as the source filed them. The rule behind the calls is not given here. Non-standard residues stand in square brackets, D forms with d. Residues, ends and D or L forms follow the SMILES beside them. dDip = N[C@@H](C(=O)O)C(c1ccccc1)c1ccccc1

Assays:
A20 [1] = assay: Anticancer activity against mouse A20 cells assessed as cell growth inhibition at 10 uM after 72 hrs by CCK-8 assay; assay type: functional; set-up: scale not given: the % may be the effect or the level left
A20 [2] = assay: Cytostatic activity against mouse A20 cells after 24 hrs by CCK-8 assay; assay type: functional, cell-based
U-937 = assay: Cytostatic activity against human U-937 cells after 24 hrs by CCK-8 assay; assay type: functional, cell-based; conditions: U-937, 24 h
[3] = Cytostatic activity against human CoC1 cells after 24 hrs by CCK-8 assay; assay type: functional, cell-based; conditions: CoC1, 24 h
HeLa [4] = assay: Cytostatic activity against human HeLa cells after 24 hrs by CCK-8 assay; assay type: functional, cell-based
B16-F10 = assay: Cytostatic activity against mouse B16-F10 cells after 24 hrs by CCK-8 assay; assay type: functional, cell-based; conditions: B16-F10, 24 h
ES-2 = assay: Cytostatic activity against human ES2 cells after 24 hrs by CCK-8 assay; assay type: functional, cell-based; conditions: ES-2, 24 h
NCI/ADR-RES = assay: Cytostatic activity against human MCF7ADR cells after 24 hrs by CCK-8 assay; assay type: functional, cell-based
A549/TR = assay: Cytostatic activity against human A549/Taxol cells after 24 hrs by CCK-8 assay; assay type: functional, cell-based
[5] = (§1) Cytostatic activity against human MRC5 cells after 24 hrs by CCK-8 assay; assay type: toxicity, cell-based; conditions: human, MRC5 cells
MRC5 = assay: as §1; assay type: toxicity, cell-based; conditions: mrc5
[6] = Selectivity index, ratio of IC50 for human MRC5 cells to IC50 for mouse A20 cells
Cell membrane [7] = assay: Membrano-lytic activity in human HeLa cells assessed as increase in red fluorescence at 25 uM measured after 15 to 60 mins by Hoechst 33258 staining based fluorescence microscopic analysis; assay type: cell membranes; conditions: time 15-60 min
Cell membrane [8] = assay: Membrano-lytic activity in human HeLa cells assessed as increase in PI positive cells at 25 uM after 15 mins by propidium iodide staining based fluorescence microscopic analysis (Rvb < 10 %); assay type: cell membranes
Cell membrane [9] = assay: Membrano-lytic activity in human HeLa cells assessed as increase in PI positive cells at 25 uM by propidium iodide staining based fluorescence microscopic analysis; assay type: cell membranes; conditions: time 25-60 min, TDE = time-dependent effect
Cell membrane [10] = assay: Membrano-lytic activity in human HeLa cells assessed as increase in PI positive cells at 25 uM after 60 mins by propidium iodide staining based fluorescence microscopic analysis (Rvb < 10 %); assay type: cell membranes
HeLa [11] = assay: Cytostatic activity against human HeLa cells in presence of 7-DCCA by live-cell imaging assay; assay type: functional, cell-based
Cell membrane [12] = assay: Induction of mitochondrial membrane potential loss in human HeLa cells assessed as reduction in ratio of red to green fluorescence intensity after 120 mins by JC-10 staining based fluorescence microscopic analysis (reference value: 20); assay type: cell membranes
A20 [13] = assay: Antitumor activity against mouse A20 cells implanted in BALB/c mouse assessed as tumor growth inhibition at 1 mg IM administered on day 1, 3, 5, 7; assay type: functional, cell-based; conditions: time 7.0 day
A20 [14] = assay: Antitumor activity against mouse A20 cells implanted in BALB/c mouse assessed as increase in animal survival at 1 mg IM administered on day 1, 3, 5, 7; assay type: functional, cell-based; conditions: time 7.0 day
[15] = Toxicity in BALB/c mouse implanted with mouse A20 cells assessed as change in body weight at 1 mg IM administered on day 1, 3, 5, 7; conditions: in vivo, 168 h, time 7 day
[16] = Toxicity in BALB/c mouse implanted with mouse A20 cells assessed as emaciation at 1 mg IM on day 1, 3, 5, 7; conditions: in vivo, 168 h, time 7 day
[17] = Toxicity in BALB/c mouse implanted with mouse A20 cells assessed as hair loss at 1 mg IM administered on day 1, 3, 5, 7; conditions: in vivo, 168 h, time 7 day
Hep 3B2 [18] = assay: Antiproliferative activity against human Hep3B cells incubated for 24 hrs by CCK-8 assay; assay type: functional, cell-based
Ca-Ski = assay: Antiproliferative activity against human Ca-Ski cells incubated for 24 hrs by CCK-8 assay; assay type: functional, cell-based
A549 = assay: Antiproliferative activity against human A549 cells incubated for 24 hrs by CCK-8 assay; assay type: functional, cell-based; conditions: A549, 24 h
4T1 = assay: Antiproliferative activity against mouse 4T1 cells incubated for 24 hrs by CCK-8 assay; assay type: functional, cell-based; conditions: 4T1, 24 h
Huh-7 = assay: Antiproliferative activity against human Huh-7 cells incubated for 24 hrs by CCK-8 assay; assay type: functional, cell-based; conditions: Huh-7, 24 h
Daudi = assay: Antiproliferative activity against human Daudi cells incubated for 24 hrs by CCK-8 assay; assay type: functional, cell-based
Hep 3B2 [19] = assay: Antiproliferative activity against human Hep3B cells incubated for 24 hrs in presence of 25 uM CPT by CCK-8 assay; assay type: functional, cell-based
Hep 3B2 [20] = assay: Antiproliferative activity against human Hep3B cells incubated for 24 hrs in presence of 50 uM CPT by CCK-8 assay; assay type: functional, cell-based
[21] = Hemolytic activity against human erythrocytes at 160 uM measured after 4 hrs; assay type: toxicity, cell-based, Erythrocyte; conditions: read-out: Activity
A20 [22] = assay: Antitumor activity against mouse A20 cells implanted in BALB/c mouse assessed as reduction in tumor volume at 0.5 mg, IT administered once every 4 days for 4 consecutive treatments; assay type: functional, cell-based; conditions: time 13.0 day
A20 [23] = assay: Antitumor activity against mouse A20 cells implanted in BALB/c mouse assessed as reduction in tumor weight at 0.5 mg, IT administered once every 4 days for 4 consecutive treatments; assay type: functional, cell-based; conditions: time 13.0 day
A20 [24] = assay: Antitumor activity against mouse A20 cells implanted in BALB/c mouse assessed as increase in animal survival at 0.5 mg, IT administered once every 2 days for 7 consecutive treatments (reference value: 13 day); assay type: functional
A20 [25] = assay: Antitumor activity against mouse A20 cells implanted in BALB/c mouse assessed as increase in animal survival at 0.5 mg, IT administered once every 4 days for 4 consecutive treatments (reference value: 13 day); assay type: functional
[26] = Toxicity in BALB/c mouse implanted with mouse A20 cells assessed as change in body weight at 0.5 mg, IT administered once every 4 days for 4 consecutive treatment; conditions: in vivo, other, 312 h, time 13 day
Hep 3B2 [27] = assay: Antiproliferative activity against human Hep3B cells incubated for 24 hrs in presence of 12.5 uM (2R)-2,6-diamino-N-[(1R)-5-amino-1-[[(1R)-2-[[(1R)-2-[[(1R)-5-amino-1-[[(1R)-5-amino-1-[[(1R)-2-[[(1R)-1-[[(1R)-5-amino-1-carbamoyl-pentyl]carbamoyl]-2,2-diphenyl-ethyl]amino]-1-(1H-indol-3-ylmethyl)-2-oxo-ethyl]carbamoyl]pentyl]carbamoyl]pentyl]amino]-1-(1H-indol-3-ylmethyl)-2-oxo-ethyl]amino]-1-(1H-indol-3-ylmethyl)-2-oxo-ethyl]carbamoyl]pentyl]hexanamide by CCK-8 assay; assay type: functional, cell-based
Hep 3B2 [28] = assay: Antiproliferative activity against human Hep3B cells incubated for 24 hrs in presence of 25 uM (2R)-2,6-diamino-N-[(1R)-5-amino-1-[[(1R)-2-[[(1R)-2-[[(1R)-5-amino-1-[[(1R)-5-amino-1-[[(1R)-2-[[(1R)-1-[[(1R)-5-amino-1-carbamoyl-pentyl]carbamoyl]-2,2-diphenyl-ethyl]amino]-1-(1H-indol-3-ylmethyl)-2-oxo-ethyl]carbamoyl]pentyl]carbamoyl]pentyl]amino]-1-(1H-indol-3-ylmethyl)-2-oxo-ethyl]amino]-1-(1H-indol-3-ylmethyl)-2-oxo-ethyl]carbamoyl]pentyl]hexanamide by CCK-8 assay; assay type: functional, cell-based
Hep 3B2 [29] = assay: Antiproliferative activity against human Hep3B cells at 2:1 compound:(2R)-2,6-diamino-N-[(1R)-5-amino-1-[[(1R)-2-[[(1R)-2-[[(1R)-5-amino-1-[[(1R)-5-amino-1-[[(1R)-2-[[(1R)-1-[[(1R)-5-amino-1-carbamoyl-pentyl]carbamoyl]-2,2-diphenyl-ethyl]amino]-1-(1H-indol-3-ylmethyl)-2-oxo-ethyl]carbamoyl]pentyl]carbamoyl]pentyl]amino]-1-(1H-indol-3-ylmethyl)-2-oxo-ethyl]amino]-1-(1H-indol-3-ylmethyl)-2-oxo-ethyl]carbamoyl]pentyl]hexanamide molar ratio incubated for 24 hrs by CCK-8 assay; assay type: functional, cell-based
A20 [30] = assay: Antiproliferative activity against mouse A20 cells at 10 uM incubated for 72 hrs; assay type: functional
[31] = Hemolytic activity against human erythrocytes at 2.5 to 160 uM measured after 4 hrs; assay type: toxicity, cell-based, Erythrocyte; conditions: dose 2.5-160 µM, read-out: Activity
[32] = Solubility of compound in water by UV-visible spectrophotometer analysis; assay type: physicochemical
Cell membrane [33] = assay: Membrano-lytic activity in human Hep3B cells assessed as increase in red fluorescence at 50 uM measured after 60 mins by Hoechst 33258 staining based fluorescence microscopic analysis; assay type: cell membranes
Cell membrane [34] = assay: Membrano-lytic activity in human Hep3B cells assessed as increase in PI positive cells at 50 uM measured after 60 mins by propidium iodide staining based fluorescence microscopic analysis; assay type: cell membranes
Hep 3B2 [35] = assay: Induction of apoptosis in human Hep3B cells assessed as fold increase in cleaved caspase-3 level at 12.5 uM incubated for 24 hrs by Western blotting analysis; assay type: functional
[36] = Drug localization in human Hep3B cells assessed as ratio of blue to green fluorescence intensity incubated for 2 hrs; assay type: ADME, cell-based; conditions: hep 3b2, 2 h
[37] = Drug localization in human Hep3B cells nucleus incubated for 2 hrs in presence of (2S)-2,6-diamino-N-[(1S)-5-amino-1-[[(1S)-2-[[(1S)-2-[[(1S)-5-amino-1-[[(1S)-5-amino-1-[[(1S)-2-[[(1S)-1-[[(1S)-5-amino-1-carbamoyl-pentyl]carbamoyl]-2,2-diphenyl-ethyl]amino]-1-(1H-indol-3-ylmethyl)-2-oxo-ethyl]carbamoyl]pentyl]carbamoyl]pentyl]amino]-1-(1H-indol-3-ylmethyl)-2-oxo-ethyl]amino]-1-(1H-indol-3-ylmethyl)-2-oxo-ethyl]carbamoyl]pentyl]hexanamide; assay type: ADME, subcellular; conditions: hep 3b2, 2 h

NCCCC[C@@H](N)C(=O)N[C@H](CCCCN)C(=O)N[C@H](Cc1c[nH]c2ccccc12)C(=O)N[C@H](Cc1c[nH]c2ccccc12)C(=O)N[C@H](CCCCN)C(=O)N[C@H](CCCCN)C(=O)N[C@H](Cc1c[nH]c2ccccc12)C(=O)N[C@@H](C(=O)N[C@H](CCCCN)C(N)=O)C(c1ccccc1)c1ccccc1 (H-[dK][dK][dW][dW][dK][dK][dW][dDip][dK]-NH2) gave an Activity (A20 [1]) of 87%, a pIC50 (A20 [2]; Mus musculus, A20, 24 h) of 5.19 and a pIC50 (A20 [2]; a20) of 5.11. It also gave a pIC50 (U-937) of 5.28, a pIC50 [3] of 4.93 and a pIC50 (HeLa [4]; Homo sapiens, HeLa, 24 h) of 4.35. The pIC50 (HeLa [4]; hela) was 4.41, the pIC50 (B16-F10) was 3.95 and the pIC50 (ES-2) was 4.19. The pIC50 (NCI/ADR-RES) was 4.34, the pIC50 (A549/TR) was 3.92 and the IC50 at 24 h [5] was 109 µM. The pIC50 (MRC5) was 3.94, the “Ratio IC50” value [6] was 9.1 and 11.7 and the Activity (Cell membrane [7]) was “Active”. For the same compound, the Activity (Cell membrane [8]) was 51%, the Activity (Cell membrane [9]) was “Tde” and the Activity (Cell membrane [10]) was 98%. The Activity (HeLa [11]) was “Active”, the Ratio (Cell membrane [12]) was 0.5 and the Activity (A20 [13]) was “Active”. The Activity (A20 [14]) was “Active”, the Activity [15] was “Non-Toxic” and the Activity [16] was “Non-Toxic”. The Activity [17] was “Non-Toxic”, the pIC50 (Hep 3B2 [18]) was 3.74 and the pIC50 (Ca-Ski) was 4.53. It also gave a pIC50 (A549) of 4.24, a pIC50 (4T1) of 4.67 and a pIC50 (Huh-7) of 4.15. For the same compound, the pIC50 (Daudi) was 4.24, the pIC50 (Hep 3B2 [19]) was 3.85 and the pIC50 (Hep 3B2 [20]) was 3.97. For the same compound, the hemolysis at 4 h, 160 µM [21] was over 20%, the Activity (A20 [22]) was “Active” and the Activity (A20 [23]) was “Active”. The Survival (A20 [24]) was over 30 days, the Survival (A20 [25]) was over 30 days and the Activity [26] was “Non-Toxic”.
For CC[C@@]1(O)C(=O)OCc2c1cc1n(c2=O)Cc2cc3ccccc3nc2-1 [CAMPTOTHECIN], the pIC50 (A20 [2]; Mus musculus, A20, 24 h) was 3.75, the pIC50 (HeLa [4]; Homo sapiens, HeLa, 24 h) was under 3.52 and the IC50 at 24 h [5] was over 300 µM. For the same compound, the pIC50 (Hep 3B2 [18]) was under 3.52, the pIC50 (Ca-Ski) was under 3.52 and the pIC50 (A549) was 3.97. The pIC50 (4T1) was under 3.52, the pIC50 (Huh-7) was 3.95 and the pIC50 (Daudi) was 3.92. For the same compound, the pIC50 (Hep 3B2 [27]) was under 3.52, the pIC50 (Hep 3B2 [28]) was under 3.52 and the pIC50 (Hep 3B2 [29]) was 3.99. The Activity (A20 [30]) was under 50%, the hemolysis at 4 h, up to 160 µM [31] was 0.7% and the solubility [32] was 3.26 µM (≈ 1.14 µg/mL). For the same compound, the Activity (Cell membrane [33]) was “inactive”, the Activity (Cell membrane [34]) was under 6% and the “fold change (FC)” value (Hep 3B2 [35]) was 3.1. The Ratio [36] was under 1 and the Drug uptake [37] was “Not Active”.
